# Measurements published in US3962256A, “2-Aminomethyl benzimidazole derivatives” (Delalande S.A., priority 1973, dated 1976).
# Counter-ions that a name gives are not always drawn.
# Assays:
# [1] = system: painful stretchings caused by the intraperitoneal injection of acetic acid; assay: Analgesic: reduction of painful stretchings caused by intraperitoneal acetic acid, oral, mouse; format: in vivo; settings: 100 mg/Kg/p.o.
# Protocol: The compounds of formula (I), administered by oral means to the mouse, are capable of reducing the number of painful stretchings caused by the intraperitoneal injection of acetic acid.
# By way of example, the following Table III lists the results obtained by administration of 100 mg/Kg/p.o. of different compounds of formula (I).
# [2] = system: gastric secretion measured after Shay ligature; assay: Gastric antisecretory: reduction of gastric secretion after Shay ligature, rat; format: in vivo; settings: 50 mg/Kg/i.d.
# Protocol: Administered by intraduodenal means to a rat, the compounds of formula (I) are capable of reducing the gastric secretion measured after Shay ligature.
# By way of example, the following Table V gives the results obtained by administration of 50 mg/Kg/i.d. of different compounds of formula (I).
# [3] = Lethal doses / percentage mortality, oral; format: in vivo; settings: for Percentage mortality: 2 000 mg/Kg/p.o., 2000 mg/kg
# Description: As a result of a comparison between the pharmacologically active doses mentioned above and the lethal doses listed in the following Table XII, the difference between said doses is sufficiently great to permit the utilisation of the compounds of formula (I) in therapeutics.
# [4] = system: rat suffering from high blood pressure; assay: Antihypertensive: return of systolic arterial pressure to normal in rats with high blood pressure; format: in vivo
# Description: The compounds of formula (I), administered by oral means to a rat suffering from high blood pressure, are capable of lowering the systolic arteriel pressure.
# By way of example, there is provided in the following Table IV the results obtained by administration of different compounds of formula (I).
# [5] = system: bronchoconstriction provoked in the guinea-pig by acetylcholine; assay: Antibronchoconstrictive and anticholinergic: bronchoconstriction by intravenous acetylcholine, Konzett method; format: in vivo
# Description: Injected by intraveinous or intraduodenal means, the compounds of formula (I) are capable of opposing the bronchoconstriction provoked in the guinea-pig by the itraveinous injection of acetylcholine by the Konzett method.
# By way of example, the following Table VII lists the results obtained by the administration of different compounds of formula (I)
# [6] = system: oedema caused by the sub-plantar injection of carraghenin; assay: Antiinflammatory: reduction of sub-plantar oedema caused by carraghenin, rat; format: in vivo; settings: 100 mg/Kg/p.o.
# Protocol: These properties are shown by a diminution of the local oedema caused by the sub-plantar injection of a phlogogenic agent, such as carraghenin, in the rat following the oral administration of compounds of formula (I).
# The following Table VI lists, by way of example, the percentage reduction of the oedems caused by the sub-plantar injection of carraghenin, resulting from the administration of 100 mg/Kg/p.o. of different compounds of formula (I).
# [7] = system: gastric ulcers, provoked in a rat by tying of the pylorus (Shay ulcers); assay: Antiulcerous: reduction of Shay ulcers (tying of the pylorus); format: in vivo; settings: 50 mg/Kg/i.d.
# Protocol: The compounds of formula (I) administered by intraduodenal means reduce the extent of gastric ulcers, provoked in a rat by tying of the pylorus (Shay ulcers).
# By way of example, there is listed in the following Table IX, the results obtained by the administrations of 50 mg/Kg/i.d. of different compounds of formula (I).
# [8] = system: explorations in the escape enclosure; assay: Sedative: reduction of number of explorations in the escape enclosure; format: in vivo; settings: 100 mg/Kg/p.o., mouse
# Protocol: The compounds of formula (I), administered by oral means to the mouse, reduce the number of explorations in the escape enclosure.
# By way of example, the following Table VIII lists the results obtained by the administration of 100 mg/Kg/p.o. of different compounds of formula (I).
# [9] = system: ventricular fibrillations provoked by the inhalation of chloroform; assay: Antiarythmic: protection against ventricular fibrillations provoked by inhalation of chloroform; format: in vivo; settings: i.p., mouse
# Description: Administered by intraperitoneal means, the compounds of formula (I) are capable of protecting the mouse against the ventricular fibrillations provoked by the inhalation of chloroform.
# [10] = system: isolated duodenum of the rat; assay: Spasmolytic: opposing barium chloride contraction of isolated duodenum; settings: papaverine as standard
# Protocol: The compounds of formula (I), introduced in the conserving medium are capable of opposing the contractural action of barium chloride on the isolated duodenum of the rat. This activity is evaluated by taking papaverine as standard.
# [11] = system: isolated heart of a guinea-pig; assay: Vasodilatatory: coronary flow of isolated heart; settings: 1 μg/ml in perfusion liquid
# Protocol: The compounds of formula (I) are capable of augmenting the flow of the coronary vessels of the isolated heart of a guinea-pig when said compounds are added in the perfusion liquid of said organ.
# By way of example, there can be found in the following Table X, the percentage augmentation of the flow of the isolated heart of a guinea-pig by adding different compounds of formula (I) to the perfusion liquid, in a concentration of 1 μg/ml.
# volume of urine emitted = assay: Diuretic: augmentation of urinary elimination; format: in vivo; settings: 25 mg/Kg/p.o., mouse, 6 hours
# Protocol: The compounds of formula (I), administered by oral means to the mouse, simultaneously with a volume of 1 ml. of an isotonic solution of sodium chloride per 25 g of the corporeal weight of the mouse, are capable of provoking an augmentation of the volume of urine emitted by reference to control animals, the volume being measured for 6 hours following administration.
# By way of example, the following Table XI lists the results obtained by the administration of 25 mg/Kg/p.o. of different compounds of formula (I).
# [12] = system: excursions into the escape enclosure; assay: Central nervous system stimulation: excursions in the escape test; format: in vivo; settings: 100 mg/Kg/p.o., mouse
# Protocol: The compounds of formula (I), administered by oral means to the mouse, provoke an augmentation of the number of excursions into the escape enclosure.
# Thus, following the administration of 100 mg/Kg/p.o. of the compounds of Code Nos. 72 457 and 72 736, an augmentation of 30% in the number of excursions in the escape test, is observed.
compound,measurement,setting,value
CCCCOc1ccc(C(=O)CCn2c(CN3CCOCC3)nc3ccccc32)cc1 [72 523],Percentage reduction of number of painful stretchings,[1],45%
same,Percentage reductions in volume of gastric secretion,[2],25%
same,Percentage mortality,[3],0%
COc1cc(C(=O)CCn2c(CN3CCOCC3)nc3ccccc32)cc(OC)c1OC.O=C(O)/C=C\C(=O)O [72 525],Percentage of rats with high blood pressure whose systolic arteriel pressure is returned to normal,[4]; 200 mg/Kg/p.o.,50%
same,Percentage inhibition of bronchoconstriction,[5]; 100 mg/kg/i.d.,80%
O=C(CCn1c(CN2CCOCC2)nc2ccccc21)c1ccc(F)cc1.O=C(O)/C=C\C(=O)O [72 526],Percentage of rats with high blood pressure whose systolic arteriel pressure is returned to normal,[4]; 100 mg/Kg/p.o.,75%
same,Percentage reduction of sub-plantar oedema,[6],55%
same,Percentage inhibition of bronchoconstriction,[5]; 100 mg/kg/i.d.,75%
same,Percentage reduction of Shay ulcers,[7],40%
COc1cc(C(=O)CCn2c(CN(C)C)nc3ccccc32)cc(OC)c1OC [72 534],Percentage inhibition of bronchoconstriction,[5]; 100 mg/kg/i.d.,50%
same,Percentage mortality,[3],0%
Cc1ccc(C(=O)CCn2c(CN3CCCCC3)nc3ccccc32)c(C)c1 [72 540],Percentage inhibition of bronchoconstriction,[5]; 100 mg/kg/i.d.,50%
same,Percentage reduction of number of explorations in the escape enclosure,[8],30%
same,Percentage mortality,[3],0%
CCN(CC)Cc1nc2ccccc2n1CCC(=O)c1ccc(F)cc1.O=C(O)/C=C\C(=O)O [72 568],Percentage of rats with high blood pressure whose systolic arteriel pressure is returned to normal,[4]; 200 mg/Kg/p.o.,50%
same,DE 50,[9],200 mg/Kg/i.p.
"CCN(CC)Cc1nc2ccccc2n1CCC(=O)c1ccccc1 [72 573, 1-(2'-benzoylethyl maleate)-2-diethylaminomethyl benzimidazole]",Percentage inhibition of bronchoconstriction,[5]; 5 mg/kg/i.v.,100%
same,spasmolytic activity relative to papaverine,[10],equivalent spasmolytic actvity to that of papaverine
same,mortality,"[3]; in vivo, po, 1 250 mg/Kg/p.o.",~50%
CCN(CC)Cc1nc2ccccc2n1CCC(=O)c1ccc(C)cc1.O=C(O)/C=C\C(=O)O [72 574],Percentage reduction of number of painful stretchings,[1],45%
same,Percentage reduction of Shay ulcers,[7],45%
COc1ccc(C(=O)CCn2c(CN3CCCC3)nc3ccccc32)cc1OC [72 617],Percentage reduction of number of painful stretchings,[1],70%
CN(C)Cc1nc2ccccc2n1CCC(=O)c1ccc(F)cc1.O=C(O)/C=C\C(=O)O [72 663],Percentage reduction of number of painful stretchings,[1],60%
same,Percentage reduction of number of explorations in the escape enclosure,[8],30%
CCN(CC)Cc1nc2ccccc2n1CCC(=O)c1ccc(OC)c(OC)c1.O=C(O)/C=C\C(=O)O [72 692],Percentage reduction of number of explorations in the escape enclosure,[8],30%
same,Percentage augmentations of flow of isolated heart of a guinea-pig,[11],60%
same,Percentage augmentation of urinary elimination,volume of urine emitted,70%
O=C(CCn1c(CN2CCCC2)nc2ccccc21)c1ccc(F)cc1 [72 708],Percentage reduction of number of painful stretchings,[1],60%
same,Percentage inhibition of bronchoconstriction,[5]; 100 mg/kg/i.d.,90%
same,spasmolytic activity relative to papaverine,[10],equivalent spasmolytic actvity to that of papaverine
same,Percentage reduction of Shay ulcers,[7],30%
Cc1ccc(C(=O)CCn2c(CN(C)C)nc3ccccc32)c(C)c1 [72 712],Percentage reduction of sub-plantar oedema,[6],70%
same,Percentage reduction of number of explorations in the escape enclosure,[8],40%
same,Percentage reduction of Shay ulcers,[7],55%
same,Percentage mortality,[3],0%
CCCCOc1ccc(C(=O)CCn2c(CN(CC)CC)nc3ccccc32)cc1 [72 727],Percentage inhibition of bronchoconstriction,[5]; 100 mg/kg/i.d.,100%
CCN(CC)Cc1nc2ccccc2n1CCC(=O)c1ccc(C)cc1C.O=C(O)/C=C\C(=O)O [72 736],Percentage inhibition of bronchoconstriction,[5]; 10 mg/kg/i.v.,90%
same,spasmolytic activity relative to papaverine,[10],equivalent spasmolytic actvity to that of papaverine
same,Percentage reduction of Shay ulcers,[7],30%
same,augmentation in the number of excursions in the escape test,[12],30%
